No end group written: not given here.
Key:
[1] = target: POSH/JIP-1 complex (Mus musculus, UniProt Q9WVI9)
Method: To identify a role for POSH in TCR-mediated JNK activation, we established its ability to bind components of the JNK signaling cascade in CD8+ T cells. For this, OT-1 TCR transgenic blasts (CTL) were re-stimulated with OVA-Tetramer (Tet)/α-CD28 and subjected to IP with antibodies against Rac1. Co-immunoprecipitation (Co-IP) of components of the JNK signaling pathway was assessed by immunoblot. […] To circumvent this problem we performed Co-IP analyses by flow cytometry (IP-FCM) using α-Rac1, α-POSH and α-JIP-1 antibodies covalently linked to latex beads. The beads were incubated with the lysates washed and probed with antibodies against the Co-IP target. The levels of associated molecules (secondary analyte/Co-IP target) were quantified relative to IP target (primary analyte/loading control). Specificity was determined by comparison to both isotype and negative control antibodies (FIG. 5 and FIG. 6). […] For IP-FCM quantification controls and Tat-POSH inhibitor specificity controls, OT-I T cells were stimulated with OVA-Tet for 24 hours. Cells were then lysed and subjected to IP-FCM using α-Rac-1, α-POSH or α-JIP-1 beads (FIG. 6A).
Cells were then lysed and subjected to IP-FCM using α-JIP-1 or α-Rac1 beads and the relative levels of POSH or JIP-1 were determined.

[2] = test system: T cells; conditions: across a large range of concentrations
[3] = test system: CD8+ T cells; conditions: data not shown
[4] = test system: normal thymocytes

POSH/JIP-1 complex, sequence (Q9WVI9 whole entry): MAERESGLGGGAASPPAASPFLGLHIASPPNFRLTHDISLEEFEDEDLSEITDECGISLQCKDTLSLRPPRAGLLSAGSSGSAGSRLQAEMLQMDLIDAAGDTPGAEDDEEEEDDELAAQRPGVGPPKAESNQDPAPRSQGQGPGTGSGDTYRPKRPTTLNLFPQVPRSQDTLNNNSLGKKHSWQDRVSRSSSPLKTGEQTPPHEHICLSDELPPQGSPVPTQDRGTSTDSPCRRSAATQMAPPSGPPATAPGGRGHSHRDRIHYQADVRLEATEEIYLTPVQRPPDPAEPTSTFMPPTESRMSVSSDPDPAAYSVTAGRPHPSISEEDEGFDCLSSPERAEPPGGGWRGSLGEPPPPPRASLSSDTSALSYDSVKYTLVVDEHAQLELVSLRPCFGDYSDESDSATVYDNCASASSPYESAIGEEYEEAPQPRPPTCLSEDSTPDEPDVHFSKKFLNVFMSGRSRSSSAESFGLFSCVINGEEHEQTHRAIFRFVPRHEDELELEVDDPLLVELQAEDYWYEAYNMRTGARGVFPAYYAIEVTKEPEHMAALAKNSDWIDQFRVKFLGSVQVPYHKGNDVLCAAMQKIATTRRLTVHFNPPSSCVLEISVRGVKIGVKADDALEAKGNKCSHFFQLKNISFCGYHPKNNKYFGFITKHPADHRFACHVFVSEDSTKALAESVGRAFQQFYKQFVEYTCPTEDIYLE
POSH/JIP-1 complex, sequence (Q8CE90 whole entry partner): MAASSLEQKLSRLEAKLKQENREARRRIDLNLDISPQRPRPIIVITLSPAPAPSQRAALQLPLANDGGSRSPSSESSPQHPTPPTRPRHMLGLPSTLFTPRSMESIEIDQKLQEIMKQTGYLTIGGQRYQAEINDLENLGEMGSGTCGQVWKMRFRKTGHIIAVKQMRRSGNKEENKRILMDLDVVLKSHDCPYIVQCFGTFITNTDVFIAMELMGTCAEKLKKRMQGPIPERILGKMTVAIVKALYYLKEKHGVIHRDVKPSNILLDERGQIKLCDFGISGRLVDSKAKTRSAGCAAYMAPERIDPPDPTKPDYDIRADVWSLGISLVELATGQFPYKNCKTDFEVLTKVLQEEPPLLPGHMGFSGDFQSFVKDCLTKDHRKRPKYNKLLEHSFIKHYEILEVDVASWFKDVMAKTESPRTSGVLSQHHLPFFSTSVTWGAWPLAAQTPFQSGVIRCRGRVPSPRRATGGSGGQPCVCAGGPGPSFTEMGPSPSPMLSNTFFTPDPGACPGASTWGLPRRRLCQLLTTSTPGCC
POSH/JIP-1 complex, sequence (Q91Y86 whole entry partner): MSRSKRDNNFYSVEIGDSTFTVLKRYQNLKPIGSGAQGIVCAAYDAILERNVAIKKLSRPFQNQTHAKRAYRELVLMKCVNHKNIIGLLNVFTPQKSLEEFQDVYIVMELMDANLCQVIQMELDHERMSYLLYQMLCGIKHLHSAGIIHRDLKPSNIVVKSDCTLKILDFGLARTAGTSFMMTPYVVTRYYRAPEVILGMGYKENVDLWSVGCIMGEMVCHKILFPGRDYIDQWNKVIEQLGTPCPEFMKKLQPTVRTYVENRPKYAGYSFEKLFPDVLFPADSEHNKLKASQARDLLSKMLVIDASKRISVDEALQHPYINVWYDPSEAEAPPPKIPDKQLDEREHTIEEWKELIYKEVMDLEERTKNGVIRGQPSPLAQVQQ

Q: For “GRKKRRQRRRPPRKEDELELRKGEMFLVFER [Tat-POSH SH3.3]”, which POSH/JIP-1 complexes disrupted [1] is on record?
A: approximately 30%

Q: And the “toxicity to T cells” value [2]?
A: non-toxic

Q: What about the “reduction in in vitro cytotoxicity” value [3] of the same sequence?
A: 10-15%

Q: And the “effect on normal cells” value [4]?
A: not affected
